Experimental data from US5696153A, “Therapeutic regimen for treating patients” (priority 1996, dated 1997).
Like-named read-outs stand apart in the source and are kept apart here.

Key:
[1] = Study B: taxol tissue levels after three IP injections at 4 day intervals; type: in vivo, nude mice; conditions: seven days after third injection
[2] = 40 mg/kg single IP
Excerpt: (§1) Five nude mice were maintained in each cage with a fiberglass bonnet in a clean isolation room. All cages and food were sterilized prior to use. Female nude mice were inoculated subcutaneously with 3×10^6 human neuroblastoma (SK-N-AS) tumor cells. Between 8-16 days, tumor growth was evident and measured.
Following sacrifice by cervical dislocation, tumor and normal tissues were immediately removed, sonicated, diluted in buffer (PBS containing 0.25% BSA, 0.05%, Tween 20, Methanol 20%, and Sodium Azide 2%). […] Tissue protein was determined using the BioRad kit (BioRad, 3300 Regatta Boulevard, Richmond, Calif. 94804).

[3] = Human toxicity, Q4D schedule (Study X); type: in vivo, human patients
Excerpt: […] It should be understood that these patients were deemed "salvage" cases almost all of whom had not responded to conventional treatment. All were otherwise thought to be beyond approved therapeutic regimens. Thus, the results and evaluation are anecdotal in nature and are not part of a controlled and statistical valid clinical trial.
[…] All were previously treated with chemotherapy and radiation for cancers of the breast (5), ovarian (2), brain (3), prostate (1), head and neck (4), bone (2), leiomyosarcoma (2), and melanoma (1).

[4] = test system: SK-N-AS neuroblastoma tumor in nude mice; type: in vivo
Excerpt: as §1

[5] = test system: SK-N-AS neuroblastoma tumor in nude mice; test: Studies B and D: antitumor activity, Q4Dx3 vs Q4Hx3; type: in vivo
[6] = test system: ovarian and breast cancers; conditions: background statement; cited from earlier work
[7] = Toxicity in nude mice (wasting, weight loss); type: in vivo
[8] = cited from earlier work
SK-N-AS cells [9] = test: Sensitivity to a second dose of taxol at different times after a first dose (FIG. 1); type: cell-based, human
SK-N-AS cells [10] = test: Cytopathologic changes after taxol exposure; type: cell-based, human; conditions: 1 μg/ml for 1 hour
Excerpt: Apoptosis was recognized as acute change in the cells. These included chromatin clumping at the periphery of the nucleus, loss of cytoplasmic detail and finally apoptotic bodies, either readily detached or floating with several being phagocytosed by surrounding cells.

clinical = test: clinical; design: species or system human patients; conditions: human, in vivo, iv
Excerpt: Characteristics of the group of twenty were: male (5); female (15); median age 44 (17-81); ECOG-PS 1 (0-3). All were previously treated with chemotherapy and radiation for cancers of the breast (5), ovarian (2), brain (3), prostate (1), head and neck (4), bone (2), leiomyosarcoma (2), and melanoma (1).

## CC(=O)O[C@H]1C(=O)[C@@]2(C)[C@H]([C@H](OC(=O)c3ccccc3)[C@]3(O)C[C@H](OC(=O)[C@H](O)[C@@H](NC(=O)c4ccccc4)c4ccccc4)C(C)=C1C3(C)C)[C@]1(OC(C)=O)CO[C@@H]1C[C@@H]2O [taxol]
[1]
  taxol in the colon: Substantial amounts
  taxol in tumor and organs: detectable in tumor and organs
[2]; day 1
  Tumor size: 378 mm^2
[2]; day 2
  Tumor size: 480 mm^2
[2]; day 3
  Tumor size: 208 mm^2
[2]; day 4
  Tumor size: 80 mm^2
[2]; day 5
  Tumor size: 252 mm^2
[2]; day 6
  Tumor size: 154 mm^2
[3]; 45-120 mg/m^2, 60-180 minutes, Q4D×3
  toxic reaction and side effects vs twenty-four hour infusion: less toxic reaction and side effects than equivalent dosage levels over a twenty-four hour infusion
[3]; 80 minute interval
  maximum amount infused without exceeding toxicity limits: 120 mg/m^2
[3]; Q4D 60 mg/m^2
  Alk. Phos. toxicity: A None: 18
  Alk. Phos. toxicity: B Abnormal pre-III, Improved: 3
  Alk. Phos. toxicity: C Abnormal pre-III, Worsened or same: 1
  Alk. Phos. toxicity: D Normal pre-III, Worsened: 1
  Alk. Phos. toxicity: E Grades: 1
  Bilirubin toxicity: A None: 22
  Bilirubin toxicity: B Abnormal pre-III, Improved: 0
  Bilirubin toxicity: C Abnormal pre-III, Worsened or same: 0
  Bilirubin toxicity: D Normal pre-III, Worsened: 1
  Bilirubin toxicity: E Grades: 1
  HB toxicity: A None: 18
  HB toxicity: B Abnormal pre-III, Improved: 1
  HB toxicity: C Abnormal pre-III, Worsened or same: 2
  HB toxicity: D Normal pre-III, Worsened: 2
  HB toxicity: E Grades: 1,4
  PLT. toxicity: A None: 19
  PLT. toxicity: B Abnormal pre-III, Improved: 0
  PLT. toxicity: C Abnormal pre-III, Worsened or same: 3
  PLT. toxicity: D Normal pre-III, Worsened: 1
  PLT. toxicity: E Grades: 3
  SGOT toxicity: A None: 20
  SGOT toxicity: B Abnormal pre-III, Improved: 0
  SGOT toxicity: C Abnormal pre-III, Worsened or same: 0
  SGOT toxicity: D Normal pre-III, Worsened: 3
  WBC toxicity: A None: 15
  WBC toxicity: B Abnormal pre-III, Improved: 0
  WBC toxicity: C Abnormal pre-III, Worsened or same: 2
  WBC toxicity: D Normal pre-III, Worsened: 6
[3]; Q4D 60 mg/m^2, 11 pts
  GGT toxicity: A None: 9
  GGT toxicity: B Abnormal pre-III, Improved: 2
  GGT toxicity: C Abnormal pre-III, Worsened or same: 0
  GGT toxicity: D Normal pre-III, Worsened: 0
[3]; Q4D 60 mg/m^2, 22 pts
  Alb. toxicity: A None: 22
  Alb. toxicity: B Abnormal pre-III, Improved: 0
  Alb. toxicity: C Abnormal pre-III, Worsened or same: 0
  Alb. toxicity: D Normal pre-III, Worsened: 0
  BUN toxicity: A None: 21
  BUN toxicity: B Abnormal pre-III, Improved: 0
  BUN toxicity: C Abnormal pre-III, Worsened or same: 0
  BUN toxicity: D Normal pre-III, Worsened: 0
  Creat toxicity: A None: 21
  Creat toxicity: B Abnormal pre-III, Improved: 0
  Creat toxicity: C Abnormal pre-III, Worsened or same: 0
  Creat toxicity: D Normal pre-III, Worsened: 0
  LDH toxicity: A None: 18
  LDH toxicity: B Abnormal pre-III, Improved: 3
  LDH toxicity: C Abnormal pre-III, Worsened or same: 0
  LDH toxicity: D Normal pre-III, Worsened: 0
  T P toxicity: A None: 21
  T P toxicity: B Abnormal pre-III, Improved: 0
  T P toxicity: C Abnormal pre-III, Worsened or same: 0
  T P toxicity: D Normal pre-III, Worsened: 0
[3]; Q4D regimen, also without pretreatment
  toxicity or hypersensitivity vs currently recommended dosages: reduced toxicity or hypersensitivity reactions
[3]; Q4D schedule
  CMAX taxol-associated toxicity: no clinically significant CMAX taxol-associated toxicity
[3]; in vivo
  abnormalities on UA., CA^++, Phos, CO2, Cl, Na^+, K^+, Mg^+: No abnormalities detected
  alopecia: 2/4
  diploplia for several hours each day following treatment: One
  malaise and fatigue: Four
[3]; treatment days separated by 3-5 days
  toxicity of infusion with separated treatment days: toxicity of the taxol infusion was diminished
[4]; 10 mg/kg IP Q4D×3
  antitumor activity in words: antitumor activity ranging from tumor growth inhibition to tumor lysis
  variance in response to drug therapy: ranging from tumor lysis to slowed growth
[4]; Study C, 10 mg/kg IP Q4D×3
  mice with delayed tumor growth: 4/5
  mice with tumor regression: 1/5
[4]; Treated Group B, 10 mg/kg IP Q4D×3
  tumor sizes or weight gain, day 1 vs day 14: no significant difference in tumor sizes or weight gain
[4]; mouse, in vivo
  weight gain between day 1 and day 14: no significant weight gain
[4]; mouse, in vivo, ip, 10 mg/kg
  Wt, Day #1, MEAN: 26.6
  Wt, Day #14, MEAN: 28.8
[4]; treated, 10 mg/kg IP Q4D×3, S.E. ±5.1
  Tumor area, Day #1, MEAN: 60.3
[4]; treated, 10 mg/kg IP Q4D×3, S.E. ±21.5
  Tumor area, Day #5, MEAN: 93
[4]; treated, 10 mg/kg IP Q4D×3, S.E. ±23.6
  Tumor area, Day #9, MEAN: 105.6
[4]; treated, 10 mg/kg IP Q4D×3, S.E. ±54.8
  Tumor area, Day #14, MEAN: 142
[5]; 15 mg/kg IP
  antitumor activity, Q4D×3 vs Q4H×3: greater antitumor activity than the Q4H×3 schedule
[5]; mouse, in vivo
  antitumor activity, Q4D vs QD schedule: better in the Q4D than in the QD schedule
[6]
  antitumor activity in words: among the most active single agent for ovarian and breast cancers
[7]; 10 mg/kg IP Q4D×3, neuroblastoma tumor bearing nude mice
  toxicity of dosage: non-toxic dosage
[7]; 15 mg/kg every 4 hours×3 in one day
  toxicity of schedule: equally non-toxic
[7]; 15 mg/kg every 4 days×3
  toxicity of schedule: equally non-toxic
[7]; Study B, 15 mg/kg IP Q4D×3
  indications of toxicity (wasting or weight loss): no indications of toxicity
[8]; Brown et al, six-hour infusion every twenty-one days, no premedication
  maximum tolerated dose: 275 mg/m^2
[8]; Brown et al
  incidence of hypersensitivity reactions: dependent upon the schedule over which the taxol was administered
[8]; Kris et al, three hour infusion, 15-200 mg/m^2
  hypersensitivity reactions: severity and unpredictability of hypersensitivity reactions
SK-N-AS cells [9]; after initial exposure, concluded
  time to revertant taxol susceptibility: four
SK-N-AS cells [9]; second dose 24 to 120 hours after first, two experiments
  sensitivity to second dose of taxol: rebounded at the fourth day and continued to the fifth day to the original sensitivity levels
SK-N-AS cells [10]
  time of abnormal mitosis and polyploidy: 36 to 72 h
  time of apoptosis: 6 to 24 h
SK-N-AS cells [10]; at 24, 48 and 72 hours
  cells altered by taxol: Approximately 30%
clinical
  Kp: 0.01
  peripheral blood CMAX: 1400 ng/mL
clinical; 0-40 ng/ml CMAX (so in the source)
  Cmax: < 40 ng/mL
clinical; T1/2 α
  half-life: 15 min
clinical; distributive phase T1/2 α
  half-life: 7 to 20 min
clinical; peripheral blood CMAX
  Cmax: 1240 ng/mL
